According to paper PMC11003488 (Journal of Enzyme Inhibition and Medicinal Chemistry, 2023):
Like-named read-outs stand apart in the source and are kept apart here.

How the values were obtained:
[1] = tested on: CCRF-CEM; test: NCI-60 SRB growth inhibition, one-dose and five-dose; assay type: cell-based; conditions: Homo sapiens
[2] = tested on: HL-60(TB); test: cells; assay type: cell-based; conditions: Homo sapiens
[3] = tested on: RPMI-8226; test: NCI-60 SRB growth inhibition, one-dose and five-dose; assay type: cell-based; conditions: Homo sapiens
[4] = tested on: SR; test: as above; assay type: cell-based; conditions: Homo sapiens
[5] = tested on: A549/ATCC; test: as above; assay type: cell-based; conditions: Homo sapiens
[6] = tested on: HOP-92; test: as above; assay type: cell-based; conditions: Homo sapiens
[7] = tested on: NCI-H226; test: as above; assay type: cell-based; conditions: Homo sapiens
[8] = tested on: NCI-H460; test: as above; assay type: cell-based; conditions: Homo sapiens
[9] = tested on: COLO 205; test: as above; assay type: cell-based; conditions: Homo sapiens
[10] = tested on: HCT-116; test: as above; assay type: cell-based; conditions: Homo sapiens
[11] = tested on: HCT-15; test: as above; assay type: cell-based; conditions: Homo sapiens
[12] = tested on: HT29; test: as above; assay type: cell-based; conditions: Homo sapiens
[13] = tested on: KM12; test: as above; assay type: cell-based; conditions: Homo sapiens
[14] = tested on: SW-620; test: as above; assay type: cell-based; conditions: Homo sapiens
[15] = tested on: SF-268; test: as above; assay type: cell-based; conditions: Homo sapiens
[16] = tested on: SNB-19; test: as above; assay type: cell-based; conditions: Homo sapiens
[17] = tested on: SNB-75; test: as above; assay type: cell-based; conditions: Homo sapiens
[18] = tested on: U251; test: as above; assay type: cell-based; conditions: Homo sapiens
[19] = tested on: MALME-3M; test: as above; assay type: cell-based; conditions: Homo sapiens
[20] = tested on: M14; test: as above; assay type: cell-based; conditions: Homo sapiens
[21] = tested on: MDA-MB-435; test: as above; assay type: cell-based; conditions: Homo sapiens
[22] = tested on: SK-MEL-5; test: as above; assay type: cell-based; conditions: Homo sapiens
[23] = tested on: UACC-62; test: as above; assay type: cell-based; conditions: Homo sapiens
[24] = tested on: IGROV1; test: as above; assay type: cell-based; conditions: Homo sapiens
[25] = tested on: OVCAR-3; test: as above; assay type: cell-based; conditions: Homo sapiens
[26] = tested on: OVCAR-4; test: as above; assay type: cell-based; conditions: Homo sapiens
[27] = tested on: OVCAR-5; test: as above; assay type: cell-based; conditions: Homo sapiens
[28] = tested on: OVCAR-8; test: as above; assay type: cell-based; conditions: Homo sapiens, OVCAR-8, read-out: percent growth inhibition
[29] = tested on: NCI/ADR-RES; test: as above; assay type: cell-based; conditions: Homo sapiens
[30] = tested on: 786-0; test: as above; assay type: cell-based; conditions: Homo sapiens
[31] = tested on: A498; test: as above; assay type: cell-based; conditions: Homo sapiens
[32] = tested on: ACHN; test: as above; assay type: cell-based; conditions: Homo sapiens
[33] = tested on: CAKI-1; test: as above; assay type: cell-based; conditions: Homo sapiens
[34] = tested on: SN12C; test: as above; assay type: cell-based; conditions: Homo sapiens
[35] = tested on: TK-10; test: as above; assay type: cell-based; conditions: Homo sapiens
[36] = tested on: DU-145; test: as above; assay type: cell-based; conditions: Homo sapiens
[37] = tested on: MCF7; test: as above; assay type: cell-based; conditions: Homo sapiens
[38] = tested on: HS 578 T; test: as above; assay type: cell-based; conditions: Homo sapiens
[39] = tested on: BT-549; test: as above; assay type: cell-based; conditions: Homo sapiens
[40] = tested on: T-47D; test: as above; assay type: cell-based; conditions: Homo sapiens, T47D
[41] = tested on: MDA-MB-468; test: as above; assay type: cell-based; conditions: Homo sapiens
[42] = tested on: NCI 60-cell line panel (full panel); test: NCI-60 SRB growth inhibition, full panel mean / MG-MID; assay type: cell-based, human; conditions: for GI50: Homo sapiens, 60 cell
[43] = read-out: percent growth inhibition

O=C(/C=C/c1cccnc1)c1cccc(NCc2ccc(CO)cc2)c1 [Compound 5e, (E)-1–(3-((4-(hydroxymethyl)benzyl)amino)phenyl)-3-(pyridin-3-yl)prop-2-en-1-one]
GI50 [1]: 5.17 µM
inhibition at 10 µM [1, 43]: 131%
GI50 ([2]; HL-60): 4.23 µM
inhibition at 10 µM ([2]; HL-60, read-out: percent growth inhibition): 118%
GI50 ([3]; RPMI-8226): 2.27 µM
inhibition at 10 µM ([3]; RPMI-8226, read-out: percent growth inhibition): 133%
GI50 [4]: 2.62 µM
GI50 ([5]; A549): 16.9 µM
inhibition at 10 µM ([5]; A549, read-out: percent growth inhibition): 16.4%
GI50 ([6]; HOP-92): 12.5 µM
inhibition at 10 µM ([6]; HOP-92, read-out: percent growth inhibition): 23.3%
GI50 ([7]; NCI-H226): 11.2 µM
inhibition at 10 µM ([7]; NCI-H226, read-out: percent growth inhibition): 123%
GI50 ([8]; NCI-H460): 14 µM
inhibition at 10 µM ([8]; NCI-H460, read-out: percent growth inhibition): 64.7%
GI50 ([9]; COLO 205): 16.3 µM
inhibition at 10 µM ([9]; COLO 205, read-out: percent growth inhibition): 37.3%
GI50 ([10]; HCT-116, HCT-116, five-dose screening): 1.88 µM
inhibition at 10 µM ([10]; HCT-116, read-out: percent growth inhibition): 193%
GI50 ([11]; HCT-15): 3.01 µM
inhibition at 10 µM ([11]; HCT-15, read-out: percent growth inhibition): 132%
GI50 ([12]; HT-29): 8.21 µM
inhibition at 10 µM ([12]; HT-29, read-out: percent growth inhibition): 173%
GI50 ([13]; KM12): 7.91 µM
inhibition at 10 µM ([13]; KM12, read-out: percent growth inhibition): 189%
GI50 ([14]; SW-620): 2.06 µM
inhibition at 10 µM ([14]; SW-620, read-out: percent growth inhibition): 140%
GI50 ([15]; SF-268): 16.9 µM
inhibition at 10 µM ([15]; SF-268, read-out: percent growth inhibition): 64.8%
GI50 ([16]; SNB-19): 12.4 µM
inhibition at 10 µM ([16]; SNB-19, read-out: percent growth inhibition): 74.9%
GI50 ([17]; SNB-75): 9.69 µM
inhibition at 10 µM ([17]; SNB-75, read-out: percent growth inhibition): 14.7%
GI50 ([18]; U-251): 4.94 µM
inhibition at 10 µM ([18]; U-251, read-out: percent growth inhibition): 146%
GI50 [19]: 13.3 µM
inhibition at 10 µM [19, 43]: 41.4%
GI50 ([20]; M14): 12.4 µM
inhibition at 10 µM ([20]; M14, read-out: percent growth inhibition): 91.9%
GI50 ([21]; MDA-MB-435): 5.26 µM
inhibition at 10 µM ([21]; MDA-MB-435, read-out: percent growth inhibition): 58.7%
GI50 ([22]; SK-MEL-5): 12.5 µM
inhibition at 10 µM ([22]; SK-MEL-5, read-out: percent growth inhibition): 85.7%
GI50 ([23]; UACC-62): 11.3 µM
inhibition at 10 µM ([23]; UACC-62, read-out: percent growth inhibition): 59.8%
GI50 ([24]; IGROV-1): 3.58 µM
inhibition at 10 µM ([24]; IGROV-1, read-out: percent growth inhibition): 86.3%
GI50 ([25]; OVCAR-3): 10.3 µM
inhibition at 10 µM ([25]; OVCAR-3, read-out: percent growth inhibition): 131%
GI50 ([26]; OVCAR-4): 11.6 µM
inhibition at 10 µM ([26]; OVCAR-4, read-out: percent growth inhibition): 48.8%
GI50 ([27]; OVCAR-5): 14.6 µM
inhibition at 10 µM ([27]; OVCAR-5, read-out: percent growth inhibition): 32.6%
inhibition at 10 µM [28]: 97.2%
GI50 [29]: 11.3 µM
inhibition at 10 µM [29, 43]: 104%
GI50 ([30]; 786-0): 15.2 µM
inhibition at 10 µM ([30]; 786-0, read-out: percent growth inhibition): 108%
GI50 ([31]; A498): 14.8 µM
inhibition at 10 µM ([31]; A498, read-out: percent growth inhibition): 15.3%
GI50 [32]: 8.07 µM
inhibition at 10 µM [32, 43]: 81.6%
GI50 ([33]; CAKI-1): 13.5 µM
inhibition at 10 µM ([33]; CAKI-1, read-out: percent growth inhibition): 42.3%
GI50 [34]: 12.3 µM
inhibition at 10 µM [34, 43]: 94.4%
GI50 ([35]; TK-10): 15 µM
inhibition at 10 µM ([35]; TK-10, read-out: percent growth inhibition): 30.6%
GI50 ([36]; DU-145): 12.8 µM
inhibition at 10 µM ([36]; DU-145, read-out: percent growth inhibition): 55%
GI50 ([37]; MCF7): 2.15 µM
inhibition at 10 µM ([37]; MCF7, read-out: percent growth inhibition): 163%
GI50 [38]: 18 µM
inhibition at 10 µM [38, 43]: 33.5%
GI50 ([39]; BT-549): 6.12 µM
inhibition at 10 µM ([39]; BT-549, read-out: percent growth inhibition): 98.1%
GI50 [40]: 9.17 µM
inhibition at 10 µM [40, 43]: 59.1%
GI50 ([41]; MDA-MB-468): 4 µM
inhibition at 10 µM ([41]; MDA-MB-468, read-out: percent growth inhibition): 153%
GI50 ([42]; read-out: Full panel GI50 mean): 9.96 µM
GI50 ([42]; read-out: Full panel MG-MID GI50): 9.96 µM
Full panel Mean GI % ([42]; mean over NCI-60 panel, single dose 10 µM): 86.06%
